Data on one compound can be found in patent publication US10774080B2, “Pyrimidine compound as JAK kinase inhibitor” (THERAVANCE BIOPHARMA R&D IP, LLC, priority 2017, dated 2020).

The subject of data set [1] is IL-22 stimulated STAT3 phosphorylation in normal human epidermal keratinocytes. Put plainly: Assay 14: inhibition of IL-22 stimulated pSTAT3 in normal human epidermal keratinocytes. The conditions noted are these: Keratinocyte, read-out: pIC50 for inhibition of IL-22 induced STAT3 phosphorylation (converted). The class given is cell-based. On the procedure:
Assay 14: Inhibition of IL-22 Stimulated pSTAT3 in Normal Human Epidermal Keratinocytes
The potency of test compounds for inhibition of interleukin-22 (IL-22) stimulated STAT3 phosphorylation was measured in the normal human epidermal keratinocytes (ATCC) using AlphaLisa. Phosphorylated STAT3 was measured via the AlphaLISA SureFire Ultra pSTAT3 (Tyr705) kit (PerkinElmer).
Primary epidermal keratinocytes were cultured in a 37° C., 5% CO2 humidified incubator in dermal cell basal medium (ATCC) supplemented with keratinocyte growth kit (ATCC) and 1× Pen/Strep (Life Technologies). […]
After cytokine stimulation, cells were lysed with 5 ul of 5× AlphaLisa Lysis Buffer (PerkinElmer) containing 1× PhosStop and Complete tablets (Roche). […] Phosphorylated STAT3 was measured via the pSTAT3 AlphaLisa kit (PerkinElmer). […] Luminescence was measured with excitation at 689 nm and emission at […] using an EnVision plate reader (PerkinElmer) under green filtered <100 lux light.
Luminescence signals were recorded and utilized to calculate the percent inhibition values based on DMSO and controls. For dose-response analysis, percent inhibition data were plotted vs. compound concentrations, and IC50 values were determined from a 4-parameter robust fit model with the Prism software.

Data set [2] deals with IL-13-induced STAT6 phosphorylation in BEAS-2B cells. Put plainly: Assay 2: cellular JAK potency, IL-13-induced STAT6 phosphorylation in BEAS-2B cells. The format is cell-based. The conditions noted are these: Homo sapiens, read-out: pIC50 for inhibition of IL-13 induced STAT6 phosphorylation (converted). On the procedure:
Assay 2: Cellular JAK Potency Assay: Inhibition of IL-13-Induced STAT6 Phosphorylation in BEAS-2B Cells
The cellular potency assay for JAK inhibition was carried out by measuring interleukin-13 (IL-13, R&D Systems) induced STAT6 phosphorylation in BEAS-2B human lung epithelial cells (ATCC). The anti-STAT6 antibody (Cell Signaling Technologies) was conjugated to AlphaScreen acceptor beads (Perkin Elmer), while the anti-pSTAT6 (pTyr641) antibody (Cell Signaling Technologies) was biotinylated using EZ-Link Sulfo-NHS-Biotin (Thermo Scientific).
BEAS-2B cells were grown at 37° C. in a 5% CO2 humidified incubator in 50% DMEM/50% F-12 medium (Life Technologies) supplemented with 10% FBS (Hyclone), 100 U/mL penicillin, 100 μg/mL streptomycin (Life Technologies), and 2 mM GlutaMAX (Life Technologies). […] After a minimum of 2 h incubation, the assay plates were read on the EnVision plate reader. AlphaScreen luminescence signals were recorded and utilized to calculate the percent inhibition values based on DMSO and background controls.
For dose-response analysis, percent inhibition data were plotted vs. compound concentrations, and IC50 values were determined from a 4-parameter robust fit model with the Prism software. Results may also be expressed as the negative logarithm of the IC50 value, pIC50.

A further data set can be described thus: in vitro. The class given is in vitro ADME. The conditions noted are these: human, microsomes. How it is done: Assay 17: Human Liver Microsome Assay The objective of this assay was to assess the metabolic stability of test compounds in an in vitro human liver sub-fraction. Human liver microsomes obtained from Bioreclamation-IVT (Baltimore, Md.) were thawed on ice and diluted into 0.1M potassium phosphate buffer pH 7.4 to yield final incubation protein concentrations of 0.1 mg/mL. […] Incubations were conducted at 37° C. temperature and test aliquots were taken at time points 0, 5, 8, 15, 30 and 45 minutes. […] The resulting samples were injected onto an LC-MS/MS system for analysis. For each incubation, the peak area of the analytes in each t0 aliquot was set to 100% and the peak areas from subsequent time point aliquots were converted to percentage of parent compound remaining relative to t0. The percentage of parent compound remaining was converted to natural log scale and plotted versus time in minutes. A linear regression analysis was performed for the initial decline of the parent disappearance profile and a formula for the best-fit line determined. The slope of the resultant line was normalized to protein concentration in mg/mL protein or number of cells/mL and CLint was calculated as follows for liver microsomes: CLint (μL·min^−1·mg^−1)=(Slope×1000)/[protein,mg/mL]

One may read the microsomal CLint as the capacity of the preparation to metabolise the compound, expressed as a volume cleared per time. A high value points to faster metabolism. Take `CCS(=O)(=O)N1[C@@H]2CCC[C@H]1C[C@H](N(C)c1nc(CO)c(F)c(Nc3cc(C)[nH]n3)n1)C2` [Compound (I), (2-(((1R,3s,5S)-9-(ethylsulfonyl)-9-azabicyclo[3.3.1]nonan-3-yl)(methyl)amino)-5-fluoro-6-((5-methyl-1H-pyrazol-3-yl)amino)pyrimidin-4-yl)methanol]: the results for the IC50 in data set [1] and in data set [2] were 3.98 nM and 3.16 nM, respectively. The intrinsic clearance (microsomal CLint) at 0.1 μM in the data set “in vitro” (pH 7.4, HLM Clint) was 136 µL/min/mg; in “in vitro” (pH 7.4, clearance class in human microsomes) it was over 50 µL/min/mg.
